What all share (format): physicochemical
Series [1] in a line: Lyophilization of stealth liposome (Doxil). The settings on record: lipids 16 mg/mL, cryoprotectant 40 mg/mL (2.5:1 w/w lipid), HP-β-CD lyophilization cycle, post lyophilization.
The nature of series [2]: Lyophilization using HP-β-CD, freezing with liquid nitrogen and vacuum at room temperature.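 Also: cyclodextrins or their derivatives tested as cryoprotectant during lyophilization of PEGylated nanoparticles, assessing particle size growth attributed to PEG crystallization.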 The settings on record: PEGylated nanoparticles A, polymer 31.25 mg/mL, vacuum at room temperature.
Description: In this example, a new strategy of using cyclodextrins and their derivatives as a cryoprotectant was tested. […] A cryoprotectant is needed to lyophilize liquid formulation that contain PEGylated nanoparticles A (Entries #1 and #2).
Series [3] can be described thus: Lyophilization using other cyclodextrins. The conditions noted are these: for Dv90 / PDI / Zave / Filtration Potency Loss: post lyophilization. The procedure: Other CDs were also evaluated at the similar weight ratio of cryoprotectant/nanoparticle.
The nature of series [4]: Cryoprotectant screen, sucrose lyophilization cycle. The settings on record: PEGylated nanoparticles A; for Dv90 / PDI / Zave: reconstituted. The procedure: A cryoprotectant screen was performed as follows.
These conditions are shown below in Table 21.

A short description of series [5]: Simple lyophilization of PLGA7K-PVA-PEG2K-30 and PLGA7K-PVA-PEG5K-30 PEGylated nanoparticle formulations. The conditions noted are these: 2K PEG PLGA nanoparticles 20 mg/mL, cryoprotectant 20 mg/mL (1:1 w/w). The source says:
The results are similar to that obtained for PEGylated nanoparticles A except for SB-β-CD. The result from SB-β-CD supported the H-bonding mechanism for cryoprotection of PEGylated PLGA nanoparticles since SB-β-CD has less hydroxyl groups than α-CD, γ-CD and HP-β-CD (about ⅓ of —OH groups of β-CD are substituted by sulfobutyl groups).

The mark [6] stands for this setting: cryoprotectant 20 mg/mL (0.64:1 w/w).
[7] abbreviates: cryoprotectant 40 mg/mL (1.28:1 w/w).
Where [8] appears, read: cryoprotectant 40 mg/mL (1.28:1 w/w), listed as HP-beta-CD.
Setting [9] is: cryoprotectant 60 mg/mL (1.92:1 w/w).
Setting [10] is: cryoprotectant 80 mg/mL (2.56:1 w/w).
Where [11] appears, read: PEGylated nanoparticles A, polymer 31.25 mg/mL, CD 40 mg/mL (1.28:1 w/w).
Where [12] appears, read: polymer 31.25 mg/mL (Doce. 1.5), cryoprotectant 100 mg/mL (3.2:1 w/w).
The mark [13] stands for this setting: polymer 31.25 mg/mL, cryoprotectant 30 mg/mL (0.96:1 w/w).
The mark [14] stands for this setting: polymer 10.42 mg/mL (Doce. 0.50), cryoprotectant 100 mg/mL (9.6:1 w/w).
The mark [15] stands for this setting: polymer 20.83 mg/mL (Doce. 1.00), cryoprotectant 100 mg/mL (4.8:1 w/w).
Where [16] appears, read: polymer 26.05 mg/mL (Doce. 1.25), cryoprotectant 100 mg/mL (3.8:1 w/w).
The mark [17] stands for this setting: polymer 31.25 mg/mL, cryoprotectant 20 mg/mL (0.64:1 w/w).
The mark [18] stands for this setting: polymer 31.25 mg/mL, cryoprotectant 60 mg/mL (1.92:1 w/w).
Where [19] appears, read: polymer 31.25 mg/mL, cryoprotectant 200 mg/mL (6.4:1 w/w).
Setting [20] is: polymer 31.25 mg/mL, cryoprotectant 300 mg/mL (9.6:1 w/w).
Where [21] appears, read: cryoprotectant 15 mg/mL (0.48:1 w/w).
[22] abbreviates: SB-β-CD 40 mg/mL, polymer 28.87 mg/mL (Doce. 1.94), 1.39:1 w/w.
The mark [23] stands for this setting: SB-β-CD 60 mg/mL, polymer 28.87 mg/mL (Doce. 1.94), 2.08:1 w/w.

Several values for one entry are separate records, joined by “and”; a condition that tells them apart may be missing. Identical values can stand only once.

Take “2-hydroxypropyl-β-cyclodextrin [HP-β-CD]”: the Dv90 in series [1] was 119 nm; in series [2] (setting [6]) it was 121 nm; in series [2] (setting [8]), 118 nm and 119 nm; in series [2] (setting [9]), 119 nm; in series [2] (setting [10]) it was 119 nm; in series [3] (setting [11]), 119 nm. Further, the PDI in series [1] is 0.071; in series [2] (setting [6]), 0.095; in series [2] (setting [8]), 0.077 and 0.075; in series [2] (setting [9]) it was 0.089; in series [2] (setting [10]), 0.095; in series [3] (setting [11]), 0.075. The Zave in series [1] was 90.32 nm; in series [2] (setting [6]) it was 90.93 nm; in series [2] (setting [8]), 89.43 nm and 90.66 nm; in series [2] (setting [9]) it was 89.84 nm; in series [2] (setting [10]), 90.60 nm; in series [3] (setting [11]), 90.66 nm. Besides, the “Reconstituted Solution appearance” value is on record as “some” in series [2] (setting [6]), “good” in series [2] (setting [7]), “good” in series [2] (setting [9]) and “good” in series [2] (setting [10]).

On to `OC[C@H]1O[C@@H](O[C@H]2[C@H](O)[C@@H](O)C(O)O[C@@H]2CO)[C@H](O)[C@@H](O)[C@H]1O` (stereo partly drawn) [Lactose, lactose], for which, in series [4] (setting [12]), the “Lyophilized preparation Appearance” value is “some”, the “Recon. Solution Appearance” value was “cloudy”, the Dv90 is given as 178 nm and the PDI is given as 0.352. The Zave in series [4] (setting [12]) was found to be 183.2 nm.

As for `OC[C@@H](O)[C@@H](O)[C@H](O)[C@H](O)CO` [Mannitol, mannitol], in series [4] (setting [12]), the “Lyophilized preparation Appearance” value is on record as “some”, the “Recon. Solution Appearance” value was “cloudy”, the Dv90 worked out at 2540 nm and the PDI was determined as 0.544. In series [4] (setting [12]), the Zave was 472.7 nm. For the same compound, in series [4] (setting [13]), the “Lyophilized preparation Appearance” value is listed as “good”, the “Recon. Solution Appearance” value is listed as “precipitation”, the Dv90 is reported as 340 nm and the PDI stood at 0.638. The Zave in series [4] (setting [13]) was 499.2 nm. Further, the “outcome after lyophilization (in place of particle size)” value (from here on “outcome after lyophilization”) in series [5] is reported as “Precipitated”.

With `OC[C@H]1O[C@H](O[C@H]2O[C@H](CO)[C@@H](O)[C@H](O)[C@H]2O)[C@H](O)[C@@H](O)[C@@H]1O` [Trehalose, trehalose], the Dv90 is given as 130 nm in series [2] (setting [7]); 160 nm in series [4] (setting [14]); 189 nm in series [4] (setting [15]); 379 nm in series [4] (setting [16]); 286 nm in series [4] (setting [12]); 188 nm in series [4] (setting [17]). The Dv90 was found to be 169 nm in series [4] (setting [18]), 186 nm in series [4] (setting [19]) and 205 nm in series [4] (setting [20]). The PDI in series [2] (setting [7]) is listed as 0.260; in series [4] (setting [14]), 0.0166; in series [4] (setting [15]), 0.725; in series [4] (setting [16]), 0.372; in series [4] (setting [12]), 0.417; in series [4] (setting [17]), 0.381. In addition, the figures for the PDI in series [4] (setting [18]), in series [4] (setting [19]) and in series [4] (setting [20]) were 0.464, 0.348 and 0.325, respectively. In addition, the “Reconstituted Solution appearance” value in series [2] (setting [7]) is on record as “precipitation”. Moreover, the Zave in series [2] (setting [7]) is recorded as 114.1 nm; in series [4] (setting [14]) it was 108.1 nm; in series [4] (setting [15]) it was 606.5 nm; in series [4] (setting [16]), 259.1 nm; in series [4] (setting [12]) it was 294.2 nm; in series [4] (setting [17]) it was 236.1 nm. Also, the Zave in series [4] (setting [18]) is 276.9 nm; in series [4] (setting [19]) it was 192.2 nm; in series [4] (setting [20]) it was 154.8 nm. The “Lyophilized preparation Appearance” value in series [4] (setting [14]), in series [4] (setting [15]), in series [4] (setting [16]), in series [4] (setting [12]), in series [4] (setting [17]) and in series [4] (setting [18]) was “good” throughout. Further, the “Lyophilized preparation Appearance” value in series [4] (setting [19]) and in series [4] (setting [20]) was “good” throughout. The “Recon. Solution Appearance” value in series [4] (setting [14]) was “slight”; in series [4] (setting [15]) it was “cloudy”; in series [4] (setting [16]), “cloudy”; in series [4] (setting [12]), “cloudy”; in series [4] (setting [17]), “precipitation”; in series [4] (setting [18]) it was “cloudy”. The “Recon. Solution Appearance” value in series [4] (setting [19]) and in series [4] (setting [20]) was “slight” in each case. For the same compound, the “outcome after lyophilization” value in series [5] is on record as “Precipitated”.

With `OC[C@H]1O[C@@H]2O[C@H]3[C@H](O)[C@@H](O)[C@@H](O[C@H]4[C@H](O)[C@@H](O)[C@@H](O[C@H]5[C@H](O)[C@@H](O)[C@@H](O[C@H]6[C@H](O)[C@@H](O)[C@@H](O[C@H]7[C@H](O)[C@@H](O)[C@@H](O[C@H]1[C@H](O)[C@H]2O)O[C@@H]7CO)O[C@@H]6CO)O[C@@H]5CO)O[C@@H]4CO)O[C@@H]3CO` [α-CD, α-cyclodextrin], in series [2] (setting [21]), the Dv90 is recorded as 122 nm, the “Filtration Loss” value was 8%, the PDI stood at 0.088 and the “Reconstituted Solution appearance” value was “good”. The Zave in series [2] (setting [21]) was 92.05 nm. In series [5], the Dv90 was determined as 139 nm, the PDI came to 0.087 and the Zave was determined as 101.0 nm. For the same compound, in series [3] (setting [11]), the Dv90 amounted to 121 nm, the PDI is reported as 0.070 and the Zave is 92.06 nm.

As for `OC[C@H]1O[C@@H]2O[C@H]3[C@H](O)[C@@H](O)[C@@H](O[C@H]4[C@H](O)[C@@H](O)[C@@H](O[C@H]5[C@H](O)[C@@H](O)[C@@H](O[C@H]6[C@H](O)[C@@H](O)[C@@H](O[C@H]7[C@H](O)[C@@H](O)[C@@H](O[C@H]8[C@H](O)[C@@H](O)[C@@H](O[C@H]1[C@H](O)[C@H]2O)O[C@@H]8CO)O[C@@H]7CO)O[C@@H]6CO)O[C@@H]5CO)O[C@@H]4CO)O[C@@H]3CO` [β-CD, β-cyclodextrin], the “solubility of the lyoprotectant in the formulation” value in series [3] (CD 40 mg/mL) is given as “Beta-CD is not soluble at this”.

`OC[C@H]1O[C@@H]2O[C@H]3[C@H](O)[C@@H](O)[C@@H](O[C@H]4[C@H](O)[C@@H](O)[C@@H](O[C@H]5[C@H](O)[C@@H](O)[C@@H](O[C@H]6[C@H](O)[C@@H](O)[C@@H](O[C@H]7[C@H](O)[C@@H](O)[C@@H](O[C@H]8[C@H](O)[C@@H](O)[C@@H](O[C@H]9[C@H](O)[C@@H](O)[C@@H](O[C@H]1[C@H](O)[C@H]2O)O[C@@H]9CO)O[C@@H]8CO)O[C@@H]7CO)O[C@@H]6CO)O[C@@H]5CO)O[C@@H]4CO)O[C@@H]3CO` [γ-CD, γ-cyclodextrin]: in series [5], the Dv90 is given as 139 nm, the PDI was 0.080 and the Zave is reported as 101.8 nm. Further, in series [3] (setting [11]), the Dv90 is on record as 121 nm, the PDI came to 0.097 and the Zave is 91.06 nm.

Consider “β-cyclodextrin sulfobutylether [SB-β-CD]”, for which the “outcome after lyophilization” value in series [5] is reported as “Precipitated”. Further, in series [3] (setting [22]), the Dv90 was 149 nm, the “Filtration Potency Loss” value is listed as 2% and the Zave is 106.9 nm. In series [3] (setting [23]), the Dv90 amounted to 151 nm, the “Filtration Potency Loss” value is 8% and the Zave was determined as 108.5 nm.

(Values after patent US20110237686A1, “FORMULATIONS AND METHODS OF USE” (Cerulean Pharma Inc, priority 2010, published 2011).)
